Here are results for one compound from article PMC5111108, “An insecticide resistance-breaking mosquitocide targeting inward rectifier potassium channels in vectors of Zika virus and malaria” (Scientific Reports, 2016).

A value given as a limit tells only on which side of the number the result lay.

The target of experiment [1] is T1, AeKir1 (Aedes aegypti, UniProt L0EQS9).
T1 sequence (L0EQS9 1-486): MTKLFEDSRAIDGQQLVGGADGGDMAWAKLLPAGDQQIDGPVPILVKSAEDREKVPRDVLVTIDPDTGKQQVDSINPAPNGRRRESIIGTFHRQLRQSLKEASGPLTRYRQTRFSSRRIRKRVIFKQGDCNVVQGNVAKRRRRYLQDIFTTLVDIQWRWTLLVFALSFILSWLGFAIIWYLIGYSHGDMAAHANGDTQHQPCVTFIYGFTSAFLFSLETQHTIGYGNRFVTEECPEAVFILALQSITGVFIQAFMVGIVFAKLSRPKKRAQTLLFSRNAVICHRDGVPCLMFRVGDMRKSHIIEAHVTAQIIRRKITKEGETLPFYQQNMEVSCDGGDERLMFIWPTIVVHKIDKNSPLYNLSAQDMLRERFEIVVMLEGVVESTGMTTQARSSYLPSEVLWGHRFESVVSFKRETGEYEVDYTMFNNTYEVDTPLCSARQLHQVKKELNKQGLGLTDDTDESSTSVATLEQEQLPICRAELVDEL
Briefly: Tl+ flux assay, AeKir1. Format: cell-based.

Another experiment addresses T2, Kir6.2/SUR1 (Homo sapiens, UniProt Q14654).
T2 construct: expressed in transfected cells
Briefly: Tl+ flux assay, mammalian Kir6.2/SUR1. Format: cell-based.

Experiment [2] deals with T1, AeKir1. Briefly: Two-electrode voltage clamp in Xenopus oocytes expressing AeKir1 or AeKir2B. Format: cell-based. The note with it: 50 μM, inward K+ currents at -140 mV. The method, then:
Heterologous expression of AeKir1 or AeKir2B was performed in Xenopus laevis oocytes as described previously. Current-voltage (I-V) relationships of oocytes were acquired by clamping the membrane potential (Vm) near the spontaneous, resting Vm and then initiating a voltage-stepping protocol (via the Clampex module of pCLAMP) consisting of 20 mV steps from −140 mV to +40 mV (100 ms each). Additional details are provided in the Supplemental Methods.
Patch clamp electrophysiology
Patch electrodes were pulled from silanized 1.5 mm outer diameter borosilicate microhematocrit tubes using a P-1000 Flaming/Brown micropipette puller (Sutter Instrument, Novato CA, USA). Electrode resistance ranged from 2 -4 MΩ. Whole-cell currents were recorded under voltage-clamp conditions using an Axopatch 200B amplifier (Molecular D evices, Sunn yvale, CA). […]
The voltage clamp was then turned off during solution changes, and when the oocyte reach ed a n ew stead y-state Vm (~90 s) the I-V relationship of the ooc yt e was acquired again. All Vm and Im v alues were digitally recorded (Digidata 1440A Data Acquisition System, Molecular Devices) and the r esulting I-V plots were generated with the Clampfit module of pC LAMP. […]
[…]
For orientation: Two-electrode voltage clamp holds a large cell at a set potential and records current.

In another experiment the test system is An. gambiae. Put plainly: Fecundity (eggs laid) in An. gambiae. As to conditions: VU041 ~1 μg/mg, VU937 ~10 μg/mg, topical within 1 h after engorgement, 72 h post blood feeding. Format: in vivo, Anopheles gambiae. The method, then:
After treatment with the respective drugs, individual female mosquitoes were transferred to Drosophila vials (Fisher Scientific, Pittsburg, OA) containing 2 mL of water. The total number of eggs were counted 72-hours after being transferred to the vial. Any mosquitoes that died during this 72-hour period were excluded from the analysis. […] At least 25 female mosquitoes were used per replicate for each treatment group; each treatment was repeated on three separate broods, giving a total number of individuals studied ranging from 75–113 for each group.

The next experiment concerns Ae. aegypti. Put plainly: Fecundity (eggs laid) in Ae. aegypti. Format: in vivo, Aedes aegypti. As to conditions: 3.4 μg/mg mosquito, topical within 1 h after engorgement, 72 h post blood feeding. The method, then: The mosquitoes were returned to rearing conditions for 24 h after which they were transferred to individual egg laying tubes consisting of a glass tube 21 × 70 mm (Fisher Scientific, Pittsburg, PA) with a piece of coffee filter ([…] USA, Clearwater, FL) cut to fit the bottom of the tube. The filter was wetted with 150 μl of dH2O and the open end of the tube was plugged with a cotton ball. The mosquitoes in their individual egg laying tubes were returned to rearing conditions for an additional 48 h, and the number of eggs laid were counted. Any mosquitoes that died during the 72 h period after blood feeding were excluded from the analysis. Thirty female mosquitoes were used per replicate for each treatment group; each treatment was repeated on four separate broods, giving a total number of individuals studied ranging from 87-113 for each treatment group. For both species, the median number of eggs laid per mosquito was compared using a Kruskal-Wallis ANOVA with a Dunn's post-hoc analysis (Prism 6, Graphpad Software).

T2 sequence (Q14654 whole entry): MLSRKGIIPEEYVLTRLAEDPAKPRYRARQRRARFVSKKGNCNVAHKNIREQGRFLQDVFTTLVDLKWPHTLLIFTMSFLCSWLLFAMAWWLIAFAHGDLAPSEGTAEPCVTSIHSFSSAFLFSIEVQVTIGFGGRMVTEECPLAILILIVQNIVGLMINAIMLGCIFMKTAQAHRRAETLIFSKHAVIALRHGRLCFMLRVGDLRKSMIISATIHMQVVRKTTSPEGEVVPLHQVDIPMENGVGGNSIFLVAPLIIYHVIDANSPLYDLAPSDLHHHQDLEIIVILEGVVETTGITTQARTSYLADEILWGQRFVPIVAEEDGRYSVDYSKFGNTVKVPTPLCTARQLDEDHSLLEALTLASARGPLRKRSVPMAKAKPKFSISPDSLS
T2 sequence (Q09428 whole entry partner): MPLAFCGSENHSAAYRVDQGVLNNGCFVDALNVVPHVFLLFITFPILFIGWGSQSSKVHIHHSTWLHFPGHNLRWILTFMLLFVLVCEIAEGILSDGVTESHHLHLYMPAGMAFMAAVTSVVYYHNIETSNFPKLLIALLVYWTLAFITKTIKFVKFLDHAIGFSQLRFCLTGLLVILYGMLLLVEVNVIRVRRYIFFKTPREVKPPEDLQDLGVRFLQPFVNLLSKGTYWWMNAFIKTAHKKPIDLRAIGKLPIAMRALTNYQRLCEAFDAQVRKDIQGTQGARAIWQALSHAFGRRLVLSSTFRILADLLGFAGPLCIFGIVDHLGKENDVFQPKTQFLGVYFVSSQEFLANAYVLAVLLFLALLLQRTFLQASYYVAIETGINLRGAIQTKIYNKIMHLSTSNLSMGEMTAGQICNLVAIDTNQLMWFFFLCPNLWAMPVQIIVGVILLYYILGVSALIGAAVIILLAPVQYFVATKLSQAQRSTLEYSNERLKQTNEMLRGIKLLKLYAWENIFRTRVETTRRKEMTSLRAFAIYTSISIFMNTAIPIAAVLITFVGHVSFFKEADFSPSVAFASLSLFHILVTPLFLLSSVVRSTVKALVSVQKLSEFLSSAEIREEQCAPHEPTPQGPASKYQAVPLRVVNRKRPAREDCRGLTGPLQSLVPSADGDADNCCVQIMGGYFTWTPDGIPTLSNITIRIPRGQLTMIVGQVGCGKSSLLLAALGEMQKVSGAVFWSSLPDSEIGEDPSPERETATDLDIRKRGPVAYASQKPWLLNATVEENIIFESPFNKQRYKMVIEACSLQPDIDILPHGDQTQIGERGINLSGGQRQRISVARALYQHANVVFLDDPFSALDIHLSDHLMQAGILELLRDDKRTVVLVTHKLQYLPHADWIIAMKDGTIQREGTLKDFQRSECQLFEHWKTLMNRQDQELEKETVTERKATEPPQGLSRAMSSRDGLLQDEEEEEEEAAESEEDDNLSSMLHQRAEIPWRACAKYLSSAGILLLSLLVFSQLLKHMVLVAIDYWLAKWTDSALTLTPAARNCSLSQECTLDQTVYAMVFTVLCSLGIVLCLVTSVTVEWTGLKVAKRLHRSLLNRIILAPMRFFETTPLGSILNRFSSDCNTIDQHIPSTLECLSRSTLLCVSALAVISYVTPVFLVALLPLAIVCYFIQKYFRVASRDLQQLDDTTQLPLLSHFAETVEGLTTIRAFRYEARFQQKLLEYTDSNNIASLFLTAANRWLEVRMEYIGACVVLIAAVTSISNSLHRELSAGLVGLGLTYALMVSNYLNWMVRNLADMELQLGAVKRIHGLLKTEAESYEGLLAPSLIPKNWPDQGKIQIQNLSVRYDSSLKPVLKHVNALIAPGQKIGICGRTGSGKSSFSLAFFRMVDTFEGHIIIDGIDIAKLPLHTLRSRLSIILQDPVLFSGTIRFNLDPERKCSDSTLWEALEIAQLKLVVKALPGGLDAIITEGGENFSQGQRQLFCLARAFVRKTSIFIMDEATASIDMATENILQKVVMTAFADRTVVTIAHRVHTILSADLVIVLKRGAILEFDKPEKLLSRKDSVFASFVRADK

`O=C(Cn1nc(C(F)(F)F)c2c1CCCC2)N1CCCc2ccccc21` [VU041, 1-(3,4-dihydroquinolin-1(2H)-yl)-2-(3-(trifluoromethyl)-4,5,6,7-tetrahydro-1H-indazol-1-yl)ethan-1-one]: half-maximal inhibition against AeKir1 [1] (IC50) was put at 1700 nM. Besides, the inhibition (commonly the relative decrease from the control value, in per cent) at 30 µM against Kir6.2/SUR1 is less than 10%. Further, the “preference of inhibition AeKir1 vs AeKir2B” value on AeKir1 [2] is on record as “preferentially inhibited AeKir1 over AeKir2B”. The “median number of eggs laid per mosquito vs control” value in the experiment on An. gambiae and in the experiment on Ae. aegypti was “significantly lower median number of eggs per mosquito” throughout.
